Test results: ChEMBL document CHEMBL3885861, “Open TG-GATES”

Organism: Rattus norvegicus
Experiment: Open TG-GATES - Regimen: Daily Repeat
Assay type: toxicity, organism-based, Sprague-Dawley
Parameters: regimen Daily Repeat, gender Male, age 6 weeks
Settings: in vivo, po, route gavage; for APTT / Bas / Eos / Fbg / Hb / Ht / Lym / MCH / MCHC / MCV / Mono / Neu / PT / Plat / RBC / Ret / WBC: tissue Blood; for KIDNEY_L / KIDNEY_R / KIDNEY_TOTAL: tissue Kidney; for LIVER: tissue Liver; for A/G / ALP / ALT / AST / BUN / CRE / Ca / Cl / DBIL / GLC / IP / K / LDH / Na / PL / RALB / TBIL / TC / TG / TP / gamma-GTP: tissue Plasma
[1] = 300 mg/kg, 72 h, dose level Middle, time 3 day
[2] = 300 mg/kg, […], dose level Middle, time 7 day
[3] = 300 mg/kg, […], dose level Middle, time 14 day
[4] = 300 mg/kg, […], dose level Middle, time 28 day
[5] = 1000 mg/kg, 72 h, dose level High, time 3 day
[6] = 1000 mg/kg, […], dose level High, time 7 day
[7] = 1000 mg/kg, […], dose level High, time 14 day
[8] = 1000 mg/kg, […], dose level High, time 28 day

## CC(S)C(=O)NCC(=O)O (centres undefined) [TIOPRONIN]
[1]
  TERMINAL_BW: 224.5 g
  APTT: 22.4 s
  Bas: 0%
  Eos: 0.8%
  Fbg: 299 mg/dL
  Hb: 13.5 g/dL
  Ht: 40%
  Lym: 78.4%
  MCH: 21.1 pg
  MCHC: 33.6%
  MCV: 62.7 fL
  Mono: 2.4%
  Neu: 17.2%
  PT: 15.2 s
  Plat: 132 x10_4/uL
  RBC: 639.8 x10_4/ul
  Ret: 7.5%
  WBC: 96 x10_2/uL
  KIDNEY_L: 1 g
  KIDNEY_R: 1 g
  KIDNEY_TOTAL: 2 g
  LIVER: 10.7 g
  A/G: 1.2
  ALP: 1564.4 IU/L
  ALT: 42 IU/L
  AST: 75.2 IU/L
  BUN: 16 mg/dL
  CRE: 0.2 mg/dL
  Ca: 10.6 mg/dL
  Cl: 105.8 meq/L
  DBIL: 0 mg/dL
  GLC: 187.4 mg/dL
  IP: 7.3 mg/dL
  K: 4.4 meq/L
  LDH: 205.6 IU/L
  Na: 140.4 meq/L
  PL: 131.4 mg/dL
  RALB: 3 g/dL
  TBIL: 0.008 mg/dL
  TC: 73.4 mg/dL
  TG: 71.2 mg/dL
  TP: 5.5 g/dL
  gamma-GTP: 1.4 IU/L
[2]
  TERMINAL_BW: 258 g
  APTT: 22.2 s
  Bas: 0%
  Eos: 1.2%
  Fbg: 330.4 mg/dL
  Hb: 14 g/dL
  Ht: 40.4%
  Lym: 77.6%
  MCH: 21.7 pg
  MCHC: 34.9%
  MCV: 62.1 fL
  Mono: 2.4%
  Neu: 18%
  PT: 15.3 s
  Plat: 121.4 x10_4/uL
  RBC: 649.6 x10_4/ul
  Ret: 6.4%
  WBC: 101.8 x10_2/uL
  KIDNEY_L: 1.1 g
  KIDNEY_R: 1.1 g
  KIDNEY_TOTAL: 2.2 g
  LIVER: 12 g
  A/G: 1.1
  ALP: 1316.6 IU/L
  ALT: 36 IU/L
  AST: 63.4 IU/L
  BUN: 15.8 mg/dL
  CRE: 0.1 mg/dL
  Ca: 10.6 mg/dL
  Cl: 106.6 meq/L
  DBIL: 0 mg/dL
  GLC: 186.4 mg/dL
  IP: 7.3 mg/dL
  K: 4.3 meq/L
  LDH: 150.2 IU/L
  Na: 140.6 meq/L
  PL: 144.6 mg/dL
  RALB: 2.9 g/dL
  TBIL: 0 mg/dL
  TC: 70.6 mg/dL
  TG: 146.2 mg/dL
  TP: 5.5 g/dL
  gamma-GTP: 1.8 IU/L
[3]
  TERMINAL_BW: 313.9 g
  APTT: 23.7 s
  Bas: 0%
  Eos: 1%
  Fbg: 287.6 mg/dL
  Hb: 14 g/dL
  Ht: 41.2%
  Lym: 83%
  MCH: 20.3 pg
  MCHC: 33.9%
  MCV: 59.7 fL
  Mono: 2.2%
  Neu: 13.2%
  PT: 15.5 s
  Plat: 109.8 x10_4/uL
  RBC: 689.8 x10_4/ul
  Ret: 5%
  WBC: 142 x10_2/uL
  KIDNEY_L: 1.2 g
  KIDNEY_R: 1.2 g
  KIDNEY_TOTAL: 2.5 g
  LIVER: 13.9 g
  A/G: 1.3
  ALP: 1441.2 IU/L
  ALT: 43.8 IU/L
  AST: 65.8 IU/L
  BUN: 20.4 mg/dL
  CRE: 0.2 mg/dL
  Ca: 10.6 mg/dL
  Cl: 106.8 meq/L
  DBIL: 0 mg/dL
  GLC: 194.6 mg/dL
  IP: 6.5 mg/dL
  K: 4.4 meq/L
  LDH: 143.4 IU/L
  Na: 140.8 meq/L
  PL: 151.8 mg/dL
  RALB: 3.1 g/dL
  TBIL: 0.004 mg/dL
  TC: 70.8 mg/dL
  TG: 155 mg/dL
  TP: 5.6 g/dL
  gamma-GTP: 2.2 IU/L
[4]
  TERMINAL_BW: 381.6 g
  APTT: 24.6 s
  Bas: 0%
  Eos: 1%
  Fbg: 323.4 mg/dL
  Hb: 15.4 g/dL
  Ht: 43.3%
  Lym: 82.6%
  MCH: 20.1 pg
  MCHC: 35.5%
  MCV: 56.6 fL
  Mono: 2%
  Neu: 12.6%
  PT: 16.1 s
  Plat: 95.9 x10_4/uL
  RBC: 764.2 x10_4/ul
  Ret: 2.6%
  WBC: 146.8 x10_2/uL
  KIDNEY_L: 1.4 g
  KIDNEY_R: 1.4 g
  KIDNEY_TOTAL: 2.9 g
  LIVER: 16.5 g
  A/G: 1.2
  ALP: 1229.6 IU/L
  ALT: 42.6 IU/L
  AST: 64.6 IU/L
  BUN: 18.6 mg/dL
  CRE: 0.2 mg/dL
  Ca: 10.9 mg/dL
  Cl: 106 meq/L
  DBIL: 0 mg/dL
  GLC: 192.4 mg/dL
  IP: 6.5 mg/dL
  K: 4.1 meq/L
  LDH: 154.2 IU/L
  Na: 143 meq/L
  PL: 142 mg/dL
  RALB: 3.3 g/dL
  TBIL: 0.016 mg/dL
  TC: 72 mg/dL
  TG: 127.6 mg/dL
  TP: 6.1 g/dL
  gamma-GTP: 1.8 IU/L
[5]
  TERMINAL_BW: 223.7 g
  APTT: 23.7 s
  Bas: 0%
  Eos: 1.2%
  Fbg: 288 mg/dL
  Hb: 13 g/dL
  Ht: 39.2%
  Lym: 73.8%
  MCH: 20.8 pg
  MCHC: 33.2%
  MCV: 62.7 fL
  Mono: 3.6%
  Neu: 20.8%
  PT: 15.8 s
  Plat: 113.1 x10_4/uL
  RBC: 626.6 x10_4/ul
  Ret: 6.9%
  WBC: 105.8 x10_2/uL
  KIDNEY_L: 1 g
  KIDNEY_R: 1 g
  KIDNEY_TOTAL: 2 g
  LIVER: 10.7 g
  A/G: 1.3
  ALP: 1581.6 IU/L
  ALT: 49.2 IU/L
  AST: 77.2 IU/L
  BUN: 15.2 mg/dL
  CRE: 0.2 mg/dL
  Ca: 10.7 mg/dL
  Cl: 105.8 meq/L
  DBIL: 0.002 mg/dL
  GLC: 186.2 mg/dL
  IP: 7.8 mg/dL
  K: 4.4 meq/L
  LDH: 173.4 IU/L
  Na: 140.8 meq/L
  PL: 131 mg/dL
  RALB: 2.9 g/dL
  TBIL: 0.014 mg/dL
  TC: 68.6 mg/dL
  TG: 83.4 mg/dL
  TP: 5.2 g/dL
  gamma-GTP: 1.8 IU/L
[6]
  TERMINAL_BW: 254.3 g
  APTT: 21.9 s
  Bas: 0%
  Eos: 1%
  Fbg: 297 mg/dL
  Hb: 13.4 g/dL
  Ht: 39.6%
  Lym: 77%
  MCH: 21.4 pg
  MCHC: 33.8%
  MCV: 63.3 fL
  Mono: 2.6%
  Neu: 18.8%
  PT: 15.4 s
  Plat: 122.7 x10_4/uL
  RBC: 626 x10_4/ul
  Ret: 6.8%
  WBC: 115.2 x10_2/uL
  KIDNEY_L: 1.1 g
  KIDNEY_R: 1.2 g
  KIDNEY_TOTAL: 2.3 g
  LIVER: 12.3 g
  A/G: 1.2
  ALP: 1407 IU/L
  ALT: 45 IU/L
  AST: 67.8 IU/L
  BUN: 18.4 mg/dL
  CRE: 0.1 mg/dL
  Ca: 10.8 mg/dL
  Cl: 105.4 meq/L
  DBIL: 0 mg/dL
  GLC: 177.2 mg/dL
  IP: 7.9 mg/dL
  K: 4.6 meq/L
  LDH: 181.4 IU/L
  Na: 140 meq/L
  PL: 132.6 mg/dL
  RALB: 2.9 g/dL
  TBIL: 0.006 mg/dL
  TC: 67.8 mg/dL
  TG: 90.8 mg/dL
  TP: 5.2 g/dL
  gamma-GTP: 1.8 IU/L
[7]
  TERMINAL_BW: 296.9 g
  APTT: 24.7 s
  Bas: 0%
  Eos: 0.8%
  Fbg: 266.2 mg/dL
  Hb: 13.9 g/dL
  Ht: 41.1%
  Lym: 81.2%
  MCH: 20.8 pg
  MCHC: 33.7%
  MCV: 61.7 fL
  Mono: 2.4%
  Neu: 14.4%
  PT: 15.9 s
  Plat: 124 x10_4/uL
  RBC: 666.8 x10_4/ul
  Ret: 5.2%
  WBC: 129.5 x10_2/uL
  KIDNEY_L: 1.3 g
  KIDNEY_R: 1.3 g
  KIDNEY_TOTAL: 2.6 g
  LIVER: 13.3 g
  A/G: 1.3
  ALP: 1175.6 IU/L
  ALT: 41.6 IU/L
  AST: 70.4 IU/L
  BUN: 23 mg/dL
  CRE: 0.2 mg/dL
  Ca: 10.5 mg/dL
  Cl: 105 meq/L
  DBIL: 0 mg/dL
  GLC: 182.6 mg/dL
  IP: 7 mg/dL
  K: 4.4 meq/L
  LDH: 182.6 IU/L
  Na: 140.2 meq/L
  PL: 125.4 mg/dL
  RALB: 3.1 g/dL
  TBIL: 0.01 mg/dL
  TC: 60 mg/dL
  TG: 120.2 mg/dL
  TP: 5.6 g/dL
  gamma-GTP: 2 IU/L
[8]
  TERMINAL_BW: 364.7 g
  APTT: 24.2 s
  Bas: 0%
  Eos: 1.2%
  Fbg: 300.8 mg/dL
  Hb: 15 g/dL
  Ht: 42.6%
  Lym: 79%
  MCH: 19.2 pg
  MCHC: 35.3%
  MCV: 54.5 fL
  Mono: 1.8%
  Neu: 16.2%
  PT: 16.1 s
  Plat: 98.3 x10_4/uL
  RBC: 781.4 x10_4/ul
  Ret: 3.1%
  WBC: 124 x10_2/uL
  KIDNEY_L: 1.5 g
  KIDNEY_R: 1.5 g
  KIDNEY_TOTAL: 3 g
  LIVER: 15.3 g
  A/G: 1.2
  ALP: 1066 IU/L
  ALT: 49.2 IU/L
  AST: 71.4 IU/L
  BUN: 17 mg/dL
  CRE: 0.2 mg/dL
  Ca: 10.9 mg/dL
  Cl: 104.2 meq/L
  DBIL: 0 mg/dL
  GLC: 180 mg/dL
  IP: 7.5 mg/dL
  K: 4 meq/L
  LDH: 154.6 IU/L
  Na: 142.6 meq/L
  PL: 135 mg/dL
  RALB: 3.2 g/dL
  TBIL: 0.03 mg/dL
  TC: 63 mg/dL
  TG: 106.2 mg/dL
  TP: 5.8 g/dL
  gamma-GTP: 2 IU/L
